In patent publication US9482666B2, “High throughput selection of specific cell binding and lytic polypeptides” (priority 2011, dated 2016):

Tests used:
Assay in all cases: Functional assay on peptide microarray (CTO/AF555 profile)
S. mutans UAB147 = type: cell-based, Streptococcus mutans; conditions: SM; CTO and AF555 labeled cells
Description: (§1) In order to make our technology more informative, we have developed a procedure for distinguishing those classes of peptides directly on the microarray (see FIG. 1c). Using the intracellular stain CTO we detected the first class (peptide-binders) and the third class (no activity). We decided to involve additional reference dye “Alexa Fluor-555” with an NHS ester active group that attack free amines present in membrane-bound proteins. It was expected, and subsequently shown, that peptide-binders should have signals dominated by both dyes on parallel arrays (profile CTO+AF+). In the case of peptides with killing activity, CTO should leak out of cells once the membrane is disrupted (profile CTO−AF+).
(§2) Before probing, the slides were treated with 90% TFA (trifluor-acetic acid) to get rid of non-immobilized peptides, blocking groups and probable organic impurities followed by DMF, ethanol and deionized water washing. […]
(§3) Turbidity of overnight cultures was measured at OD600. The CFU/ml value was calculated according to McFarland turbidity standard. […]
(§4) Microarrays were scanned by using a Perkin-Elmer ProScanArray HT Microarray Scanner with the 488, 543 and 633 nm excitation lasers at 100% power and 70% photomultiplier tube gain. […] All scanned images were analyzed by using GenePix Pro 6.0 software (Axon Instruments, Union City, Calif., USA). […]

B. subtilis = type: cell-based, Bacillus subtilis; conditions: BS; CTO and AF555 labeled cells
Description: as §1, §2, §3, §4

S. aureus UAB637 = type: cell-based, Staphylococcus aureus; conditions: SA; CTO and AF555 labeled cells
Description: as §1, §2, §3, §4

P. aeruginosa PAO-1 = type: cell-based, Pseudomonas aeruginosa; conditions: PA; CTO and AF555 labeled cells
Description: as §1, §2, §3, §4

E. coli O111:B4 = type: cell-based, Escherichia coli O111:B4; conditions: EC; CTO and AF555 labeled cells
Description: as §1, §2, §3, §4

| Sequence | microarray profile (lytic / binder / no profile) (S. mutans UAB147) | microarray profile (lytic / binder / no profile) (B. subtilis) | microarray profile (lytic / binder / no profile) (S. aureus UAB637) | microarray profile (lytic / binder / no profile) (P. aeruginosa PAO-1) | microarray profile (lytic / binder / no profile) (E. coli O111:B4) |
| --- | --- | --- | --- | --- | --- |
| DRIFHKMQHKPYKIKKRGSC | lytic | no profile | binder | lytic | binder |
| RWRRHKHFKRPHRKHKRGSC | lytic | lytic | lytic | lytic | no profile |
